Earlier results, collected in patent publication US11959122B2.

Test system: microbial flora in the target watershed
Conditions: determined by EUCAST database; unit assumed; cited from earlier work

Structure (SMILES) | Observed MIC [µg/mL]
CC1(C)S[C@@H]2[C@H](NC(=O)COc3ccccc3)C(=O)N2[C@H]1C(=O)O [Phenoxymethylpenicillin] | 4
CCN[C@@H]1C[C@H](N)[C@@H](O[C@H]2OC(CN)=CC[C@H]2N)[C@H](O)[C@H]1O[C@H]1OC[C@](C)(O)[C@H](NC)[C@H]1O [Netilmicin] | 16
C/C(=C\C(=O)OCCCCCCCCC(=O)O)C[C@@H]1OC[C@H](C[C@@H]2O[C@H]2[C@@H](C)[C@H](C)O)[C@@H](O)[C@H]1O [Mupirocin] | 32
CC1CCc2cc(F)cc3c(=O)c(C(=O)O)cn1c23 (centres unmarked) [Flumequine] | 64
CCN1CCN(c2cc3c(cc2F)c(=O)c(C(=O)O)cn3C2CC2)CC1 [Enrofloxacin] | 8
CCN1CCN(C(=O)N[C@@H](C(=O)N[C@@H]2C(=O)N3[C@@H]2SC(C)(C)[C@@H]3C(=O)O)c2ccccc2)C(=O)C1=O [Piperacillin] | 4
CO/N=C(\C(=O)N[C@@H]1C(=O)N2C(C(=O)[O-])=C(C[N+]3(C)CCCC3)CS[C@H]12)c1csc(N)n1 [Cefepime] | 8
COc1cc(Cc2cnc(N)nc2N)cc(OC)c1OC [Trimethoprim] | 16
Cc1onc(-c2ccccc2Cl)c1C(=O)N[C@@H]1C(=O)N2[C@@H]1SC(C)(C)[C@@H]2C(=O)O [Cloxacillin] | 64
N[C@@H](C(=O)N[C@@H]1C(=O)N2C(C(=O)O)=C(Cl)CS[C@H]12)c1ccccc1 [Cefaclor] | 32
Cc1ncc([N+](=O)[O-])n1CC(C)O (centres unmarked) [Secnidazole] | 32
CCc1c(Cl)c(O)c(Cl)c(O)c1C(=O)O[C@H]1[C@H](O)[C@H](OC)[C@H](OC/C2=C\C=C\C[C@H](O)/C(C)=C/[C@H](CC)[C@@H](O[C@@H]3OC(C)(C)[C@@H](OC(=O)C(C)C)[C@H](O)[C@@H]3O)/C(C)=C/C(C)=C/C[C@@H]([C@@H](C)O)OC2=O)O[C@@H]1C [Fidaxomicin] | 8
C=C[C@]1(C)C[C@@H](OC(=O)CS[C@@H]2C[C@H]3CC[C@@H](C2)N3C)[C@]2(C)[C@H](C)CC[C@]3(CCC(=O)[C@H]32)[C@@H](C)[C@@H]1O [Retapamulin] | 64
CC[C@H]1OC(=O)[C@H](C)[C@@H](O[C@H]2C[C@@](C)(OC)[C@@H](O)[C@H](C)O2)[C@H](C)[C@@H](O[C@@H]2O[C@H](C)C[C@H](N(C)C)[C@H]2O)[C@](C)(O)C[C@@H](C)/C(=N\OCOCCOC)[C@H](C)[C@@H](O)[C@]1(C)O [Roxithromycin] | 2
C[C@@H](O)[C@H]1C(=O)N2C(C(=O)O)=C(S[C@@H]3CN[C@H](C(=O)Nc4cccc(C(=O)O)c4)C3)[C@H](C)[C@H]12 [Ertapenem] | 2
Cc1onc(-c2ccccc2)c1C(=O)N[C@@H]1C(=O)N2[C@@H]1SC(C)(C)[C@@H]2C(=O)O [Oxacillin] | 32

Structure (SMILES) | Observed MIC [µg/mL]
C[C@@H](c1ncncc1F)[C@](O)(Cn1cncn1)c1ccc(F)cc1F [Voriconazole] | 2
CO/N=C(\C(=O)N[C@@H]1C(=O)N2C(C(=O)O)=C(CSc3nc(=O)c(=O)[nH]n3C)CS[C@H]12)c1csc(N)n1 [Ceftriaxone] | 2
CC[C@H]1OC(=O)[C@H](C)C(=O)[C@H](C)[C@@H](O[C@@H]2O[C@H](C)C[C@H](N(C)C)[C@H]2O)[C@](C)(OC)C[C@@H](C)C(=O)[C@H](C)[C@H]2N(CCCCn3cnc(-c4cccnc4)c3)C(=O)O[C@]12C [Telithromycin] | 16
CO/N=C(\C(=O)N[C@@H]1C(=O)N2C(C(=O)O)=C(CSC(=O)c3ccco3)CS[C@H]12)c1csc(N)n1 [Ceftiofur] | 8
CN[C@@H]1[C@H](O)[C@H](NC)[C@H]2O[C@@]3(O)C(=O)C[C@@H](C)O[C@H]3O[C@@H]2[C@H]1O [Spectinomycin] | 2
COc1c(N2CCNC(C)C2)c(F)cc2c(=O)c(C(=O)O)cn(C3CC3)c12 (centres unmarked) [Gatifloxacin] | 4
CC1(C)S[C@@H]2[C@H](NC(=O)[C@H](N)c3ccccc3)C(=O)N2[C@H]1C(=O)O [Ampicillin] | 4
C[C@H]1[C@H](NC(=O)/C(=N\OC(C)(C)C(=O)O)c2csc(N)n2)C(=O)N1S(=O)(=O)O [Aztreonam] | 32
Cc1nnc(SCC2=C(C(=O)O)N3C(=O)[C@@H](NC(=O)Cn4cnnn4)[C@H]3SC2)s1 [Cefazolin] | 32
Cc1ncc([N+](=O)[O-])n1CCO [Metronidazole] | 16
CO/N=C(\C(=O)N[C@@H]1C(=O)N2C(C(=O)O)=C(COC(N)=O)CS[C@H]12)c1ccco1 [Cefuroxime] | 8
C[C@@H](O)[C@H]1C(=O)N2C(C(=O)O)=C([C@H]3CCCO3)S[C@H]12 [Faropenem] | 8
CN(C)c1cc(NC(=O)CNC(C)(C)C)c(O)c2c1C[C@H]1C[C@H]3[C@H](N(C)C)C(O)=C(C(N)=O)C(=O)[C@@]3(O)C(O)=C1C2=O [Tigecycline] | 16
CC[C@H]1OC(=O)[C@H](C)[C@@H](O[C@H]2C[C@@](C)(OC)[C@@H](O)[C@H](C)O2)[C@H](C)[C@@H](O[C@@H]2O[C@H](C)C[C@H](N(C)C)[C@H]2O)[C@](C)(O)C[C@@H](C)C(=O)[C@H](C)[C@@H](O)[C@]1(C)O [Erythromycin] | 16
CN1CCN(c2cc3c(cc2F)c(=O)c(C(=O)O)cn3-c2ccc(F)cc2)CC1 [Difloxacin] | 2
CC1(C)S[C@@H]2[C@H](NC(=O)[C@H](N)c3ccc(O)cc3)C(=O)N2[C@H]1C(=O)O [Amoxicillin] | 4
